Experimental findings from ChEMBL document CHEMBL1128939, “New simplified inhibitors of EPSP synthase: The importance of ring size for recognition at the shikimate 3-phosphate site” (Bioorg Med Chem Lett, 1996) are described below.

The first test concerns the target T1, 3-phosphoshikimate 1-carboxyvinyltransferase (Escherichia coli K-12, UniProt P0A6D3).
T1 sequence (P0A6D3 whole entry): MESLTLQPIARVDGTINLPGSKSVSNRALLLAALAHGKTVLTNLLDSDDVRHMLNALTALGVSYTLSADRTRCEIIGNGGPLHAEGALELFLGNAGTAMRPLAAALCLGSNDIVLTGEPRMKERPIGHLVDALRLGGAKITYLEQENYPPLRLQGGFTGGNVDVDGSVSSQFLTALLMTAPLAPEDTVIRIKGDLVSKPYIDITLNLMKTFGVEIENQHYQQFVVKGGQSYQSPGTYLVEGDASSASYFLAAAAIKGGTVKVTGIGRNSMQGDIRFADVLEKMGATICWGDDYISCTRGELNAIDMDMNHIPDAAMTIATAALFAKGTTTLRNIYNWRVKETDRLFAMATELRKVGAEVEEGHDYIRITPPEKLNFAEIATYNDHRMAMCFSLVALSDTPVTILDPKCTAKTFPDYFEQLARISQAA
The experiment in a line: Compound was tested for inhibitory activity against EPSP(5-enolpyruvylshikimate 3-phosphate) synthase in Escherichia coli.
Details: not given
Usually IC50 stands for the concentration that gives 50% inhibition. Read a high IC50 as weaker potency. As for `O=C(O)c1cccc(P(=O)(O)O)n1`, the IC50 came out at 50000 µM.
Same read-out and setting: in the case of `O=C(O)c1ccc(O)c(C(O)(C(=O)O)C(=O)O)c1` it was 20000 µM; in that of `O=C(O)C1CCC(P(=O)(O)O)N1` (stereo not drawn), 50000 µM; in that of `O=C(O)c1cccc(P(=O)(O)O)c1`, 50000 µM.
On the same count and under the same terms, to `O=C(O)c1cccn1CP(=O)(O)O` belongs 50000 µM.

Still in this test, the particulars now being: read-out: Kd app.
Consider `O=C(O)C1=C[C@@H](OP(=O)(O)O)[C@@H](O)[C@H](O[C@](CF)(OP(=O)(O)O)C(=O)O)C1`, for which the Kd was found to be 0.0006 µM.

Staying with this test, now noted: read-out: Ki app.
For `O=C(O)C1=C[C@@H](OP(=O)(O)O)[C@@H](O)CC1`, the Ki was 13 µM.
For the compound `O=C(O)c1cc(C(O)P(=O)(O)O)c[nH]1` (stereo not drawn), the Ki worked out at 0.0145 µM.
Consider `O=C(O)C1=C[C@@H](OP(=O)(O)O)[C@@H](O)[C@H](O[C@](OP(=O)(O)O)(C(=O)O)C(F)(F)F)C1`, for which the Ki turned out to be 0.032 µM.
Take `C[C@@](O[C@@H]1CC(C(=O)O)=C[C@@H](OP(=O)(O)O)[C@H]1O)(C(=O)O)P(=O)(O)O`: the Ki amounted to 0.005 µM.
Turning to `O=C(O)C1=C[C@@H](OP(=O)(O)O)[C@@H](O)[C@H](O[C@](OP(=O)(O)O)(C(=O)O)C(F)F)C1`, the Ki was determined as 0.004 µM.
Same read-out and setting: to `O=C(O)c1cc(OC(C(=O)O)C(=O)O)cc(OC(C(=O)O)P(=O)(O)O)c1` (stereo not drawn) belongs 1.3 µM; to `O=C(O)c1cc(OC(C(=O)O)P(=O)(O)O)c(O)c(C(O)(C(=O)O)C(=O)O)c1` (stereo not drawn), 0.52 µM.
